The numbers were not newly measured in patent US9687529B2, “Method of controlling coagulation” (Duke University, priority 2011, dated 2017), which cites them from elsewhere.

In data set [1] the target is thrombin (Homo sapiens, UniProt P00734). Particulars: cited from earlier work.
The subject of data set [2] is clot formation in plasma. The conditions noted are these: concentration ten-fold higher than recommended for CPB; cited from earlier work.
The conditions of data set [3]: cited from earlier work.

pKd: −log10 of the molar value.

As usually defined, the pKd is the negative decadic logarithm of the Kd, by convention in mol/L. Take FPRPGGGGNGDFEEIPEEYL [bivalirudin]: in data set [1], the pKd is ~8.72. For the same sequence, the “clot propagation and strength (in words)” value in data set [2] is “did not significantly reduce clot propagation and strength”. For the same sequence, the in vivo half-life result in data set [3] was “about 30 minutes”.
